In this assay the test system is αvβ3 positive M21 Melanoma cells. The experiment in a line: Cell adhesion inhibition assay on vitronectin coated plates. As to conditions: Homo sapiens. It counts as cell-based.

Read-outs that look alike come from different tables or passages of the source.

Procedure: Cell adhesion inhibition study was done on plates coated with vitronectin using human melonoma cell line M21. […] After about 1 hour incubation, the wells were washed, and the cells that adhered were stained with a solution of crystal violet and the optical density (OD) at about 590 nm was measured. The OD measured was proportional to the number of cells bound to the vitronectin plate and was plotted against the concentration of component 10 on the surface of the NPs in different formulations to calculate the IC50.
FIG. 8 schematically depicts the cell adhesion assay wherein M21 human melanoma cells, which express αvβ3, were mixed with liposomes covalently conjugated to an integrin antagonist (ligand) or to ligand alone. The cells were then placed on vitronectin plates, washed and stained. The number of bound cells was then counted using a plate counter.

With `NCCS(=O)(=O)N[C@@H](CNC(=O)c1ccc(OCCNC2=NCCCN2)cc1)C(=O)O` [Liposome 10, 4-[2-(3,4,5,6-Tetrahydropyrimidin-2-ylamino)ethyloxy]benzoyl-2-(S)-aminoethylsulfonamido-β-alanine], the IC50 is, setting by setting: (FIG. 9, M21 cells on vitronectin, read-out: IC50 cell adhesion (FIG. 9), antagonist alone) 500 µM; (M21 cells on vitronectin coated plates, monomeric ligand, read-out: IC50 for inhibition of cell adhesion, free ligand) 64 µM.

By IC50 is commonly meant the point on the concentration scale where inhibition reaches its midpoint.
